What was measured:
KB cell = experiment: MTS assay, growth inhibition of KB cells; format: cell-based; conditions: Homo sapiens, at 10 μM concentration, incubated for 72 h, read-out: Inhibition rate (%) (growth inhibition rate of MTS assay)
Summary of the method: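 KB cells were allowed 24 h to attach before a 72 h exposure to compound at 10 μM. Viability was measured by MTS/PMS reduction, with absorbance read at 490 nm after 3 h. Values are reported as percent growth inhibition.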

biotinylated tubulin = experiment: Colchicine competitive-binding assay; conditions: at 10 μM concentration, 3H-colchicine; for binding rate (%) (colchicine competitive-binding): left column pair of Table 7; for Inhibition rate (%) (colchicine competitive-binding): right column pair of Table 7
Description: The colchicine competitive-binding assay was done by using the Colchicine Site competitive Assay Kit (Cytoskeleton, Inc.), streptavidin-coated yttrium SPA beads(GE Healthcare, Inc.), and ^3H-colchicine(PerkinElmer, Inc.). Briefly, the binding mixture includes 1 μL^3H-labeled ligand (specific activity […]), and 1 μg biotinylated tubulin and 88 μg SPA beads in 200 μL assay buffer. The test compound and ^3H-labeled ligand were added before tubulin. After incubation at 37° C. for 2 hours, the SPA beads were allowed to settle down for 24 hours at room temperature, and scintillation counting was done on the TopCount Microplate Scintillation Counter.

porcine brain tubulin = experiment: Tubulin polymerization assay; format: biochemical; conditions: at 10 μM concentration
Description: In vitro tubulin polymerization assay was performed by using the Tubulin Polymerization Assay Kit (Cytoskeleton, Inc., Denver, Colo.) in a 96-well format, which used the polymerization of porcine brain tubulin in vitro in the presence of varying concentrations of the test compounds. Fluorescence measurements were obtained at 1-minute intervals over a 31-minute period. Fluorescent measurements were performed using excitation at 365 nm, and emission was measured at 440 nm using a Packard Fusion Alpha Microplate Analyzer. Data were analyzed as relative fluorescent units by GraphPad Prism 5 Demo.

Row | SMILES | binding rate (%) (colchicine competitive-binding) (biotinylated tubulin) | Inhibition rate (%) (colchicine competitive-binding) (biotinylated tubulin) | inhibition at 10 µM (KB cell) [%] | Inhibition rate (%) of tubulin polymerization (porcine brain tubulin) [%]
1 | Cc1ccc(CCC(=O)Nc2ccc(-n3ccnc3)cn2)o1 [Compound 77, N-(5-Imidazol-1-yl-pyridin-2-yl)-3-(5-methyl-furan-2-yl)-propionamide] |  | 99.8 | 87.3 | 60.8
2 | O=C(CCc1ccccc1)Nc1ccc(-n2ccc3ccccc32)cn1 [Compound 79, N-(5-Indol-1-yl-pyridin-2-yl)-3-phenyl-propionamide] |  | 90.0 | 73.7 | 53.2
3 | COc1ccc(Sc2ccc(NC(=O)CCc3ccc(C)o3)nc2)cc1 [Compound 83, N-[5-(4-Methoxy-phenylsulfanyl)-pyridin-2-yl]-3-(5-methyl-furan-2-yl)-propionamide] |  | 91.9 | 95.2 | 64.7
4 | COc1ccc(Sc2ccc(NC(=O)CCc3ccccc3)nc2)cc1 [Compound 84, N-[5-(4-Methoxy-phenylsulfanyl)-pyridin-2-yl]-3-phenyl-propionamide] |  | 88.0 | 94.7 | 50.3
5 | Cc1ccc(CCC(=O)Nc2ccc(SCc3ccccc3)cn2)o1 [Compound 85, N-(5-Benzylsulfanyl-pyridin-2-yl)-3-(5-methyl-furan-2-yl)-propionamide] |  | 92.6 | 76.8 | 54.0
6 | Cc1ccc(CCC(=O)Nc2ncc(-c3ccccc3)cn2)o1 [Compound 92, 3-(5-Methyl-furan-2-yl)-N-(5-phenyl-pyrimidin-2-yl)-propionamide] |  | 94.7 | 97.1 | 74.0
7 | O=C(CCc1ccccc1)Nc1ncc(-c2ccccc2)cn1 [Compound 94, 3-Phenyl-N-(5-phenyl-pyrimidin-2-yl)-propionamide] |  | 82.9 | 97.4 | 55.2
8 | O=C(CCc1ccccc1)Nc1ncc(-c2ccc(F)cc2)cn1 [Compound 99, N-[5-(4-Fluoro-phenyl)-pyrimidin-2-yl]-3-phenyl-propionamide] |  | 78.3 | 95.8 | 55.8
9 | Cc1ccc(CCC(=O)Nc2ncc(-c3ccc(F)cc3)cn2)o1 [Compound 105, N-[5-(4-Fluoro-phenyl)-pyrimidin-2-yl]-3-(5-methyl-furan-2-yl)-propionamide] |  | 99.3 | 96.7 | 72.2
10 | Cc1ccc(CCC(=O)Nc2ncc(-c3ccc(N(C)C)cc3)cn2)o1 [Compound 106, N-[5-(4-Dimethylamino-phenyl)-pyrimidin-2-yl]-3-(5-methyl-furan-2-yl)-propionamide] |  | 70.1 | 84.6 | 69.3
11 | Cc1ccc(CCC(=O)Nc2ccc(-c3ccccc3)cn2)o1 [Compound 111, 3-(5-Methyl-furan-2-yl)-N-(5-phenyl-pyridin-2-yl)-propionamide] |  | 96.4 | 65.1 | 72.7
12 | Cc1ccc(CCC(=O)Nc2ccc(-c3ccc(F)cc3)cn2)o1 [Compound 112, N-[5-(4-Fluoro-phenyl)-pyridin-2-yl]-3-(5-methyl-furan-2-yl)-propionamide] |  | 87.8 | 96.2 | 76.9
13 | Cc1ccc(CCC(=O)Nc2ncc(-c3ccccc3)cc2C)o1 [Compound 118, 3-(5-Methyl-furan-2-yl)-N-(3-methyl-5-phenyl-pyridin-2-yl)-propionamide] |  | 99.7 | 93 | 81.4
14 | Cc1ccc(CCC(=O)Nc2ncc(-c3ccc(N(C)C)cc3)cc2C)o1 [Compound 120, N-[5-(4-Dimethylamino-phenyl)-3-methyl-pyridin-2-yl]-3-(5-methyl-furan-2-yl)-propionamide] |  | 97.5 | 85.9 | 51.8
15 | Cc1ccc(CCC(=O)Nc2ccc(Br)cn2)o1 [Compound 123, N-(5-Bromo-pyridin-2-yl)-3-(5-methyl-furan-2-yl)-propionamide] |  | 78.4 | 95.8 | 85.6
16 | Cc1ccc(CCC(=O)Nc2ncc(Br)cc2C)o1 [Compound 124, N-(5-Bromo-3-methyl-pyridin-2-yl)-3-(5-methyl-furan-2-yl)-propionamide] |  | 74.8 | 93.3 | 84.9

Further lines, with some results ahead:

Row | binding rate (%) (colchicine competitive-binding) (biotinylated tubulin) | Inhibition rate (%) (colchicine competitive-binding) (biotinylated tubulin) | SMILES | inhibition at 10 µM (KB cell) [%] | Inhibition rate (%) of tubulin polymerization (porcine brain tubulin) [%]
17 | 76.9 |  | COc1ccc(Cc2cnc(NC(=O)CCc3cccnc3)s2)cc1OC [Compound 17, N-[5-(3,4-Dimethoxy-benzyl)-thiazol-2-yl]-3-pyridin-3-yl-propionamide] | 95.9 | 65.3
18 | 55.4 |  | O=C(CCc1ccccc1)Nc1ncc(Cc2ccc(C(F)(F)F)cc2)s1 [Compound 47, 3-Phenyl-N-[5-(4-trifluoromethyl-benzyl)-thiazol-2-yl]-propionamide] | 94.5 | 57.2
19 | 75.4 |  | COc1ccc(Cc2cnc(NC(=O)CCc3ccccc3)s2)c(OC)c1OC [Compound 52, 3-Phenyl-N-[5-(2,3,4-trimethoxy-benzyl)-thiazol-2-yl]-propionamide] | 94.5 | 51.2
20 | 78.7 |  | COc1ccc(Cc2cnc(NC(=O)CCc3cccnc3)s2)c(OC)c1OC [Compound 53, 3-Pyridin-3-yl-N-[5-(2,3,4-trimethoxy-benzyl)-thiazol-2-yl]-propionamide] | 96.7 | 62.2
21 | 68.8 |  | COc1ccc(Cc2cnc(NC(=O)CCc3ccc(-c4ccccc4)cc3)s2)c(OC)c1OC [Compound 55, 3-Biphenyl-4-yl-N-[5-(2,3,4-trimethoxy-benzyl)-thiazol-2-yl]-propionamide] | 95.1 | 54.9
22 | 85.2 |  | COc1ccc(Sc2cnc(NC(=O)CCc3ccccc3)s2)cc1 [Compound 69, N-[5-(4-Methoxy-phenylsulfanyl)-thiazol-2-yl]-3-phenyl-propionamide] | 87.6 | 50.5
23 | 86.0 |  | COc1ccc(Sc2cnc(NC(=O)CCc3ccc(C)o3)s2)cc1 [Compound 71, N-[5-(4-Methoxy-phenylsulfanyl)-thiazol-2-yl]-3-(5-methyl-furan-2-yl)-propionamide] | 94.4 | 60.1
24 |  | 83.4 | COc1cccc(-c2cnc(NC(=O)CCc3ccc(C)o3)nc2)c1OC [Compound 100, N-[5-(2,3-Dimethoxy-phenyl)-pyrimidin-2-yl]-3-(5-methyl-furan-2-yl)-propionamide] | 97.8 | 84.3
25 |  | 59.2 | COc1cccc(-c2cnc(NC(=O)CCc3ccccc3)nc2)c1OC [Compound 102, N-[5-(2,3-Dimethoxy-phenyl)-pyrimidin-2-yl]-3-phenyl-propionamide] | 94.5 | 58.6
